Target: T1, naturally occurring proton-gated cation channel in a HEK293 cell (Homo sapiens, UniProt P78348)
T1 construct: a naturally occurring proton-gated cation channel in a HEK293 cell; endogenous in cells; host or cells: HEK293
T1 sequence (P78348 1-528): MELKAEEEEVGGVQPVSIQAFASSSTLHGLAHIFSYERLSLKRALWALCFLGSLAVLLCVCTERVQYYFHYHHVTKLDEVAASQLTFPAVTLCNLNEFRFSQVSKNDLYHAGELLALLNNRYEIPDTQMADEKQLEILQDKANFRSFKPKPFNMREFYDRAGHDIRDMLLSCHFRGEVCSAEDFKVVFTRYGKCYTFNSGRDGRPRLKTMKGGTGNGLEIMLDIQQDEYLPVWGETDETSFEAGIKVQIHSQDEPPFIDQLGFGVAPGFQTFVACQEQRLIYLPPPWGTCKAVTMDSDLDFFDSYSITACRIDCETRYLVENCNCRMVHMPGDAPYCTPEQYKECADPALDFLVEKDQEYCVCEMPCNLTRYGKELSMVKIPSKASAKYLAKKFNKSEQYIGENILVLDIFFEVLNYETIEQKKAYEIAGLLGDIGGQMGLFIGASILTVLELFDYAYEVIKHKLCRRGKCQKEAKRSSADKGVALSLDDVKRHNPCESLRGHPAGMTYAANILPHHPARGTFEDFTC
Assay: Patch clamp of whole cell currents elicited by a drop in extracellular pH in HEK293 cells
Assay type: cell-based
Conditions: extracellular pH drop from 7.4 to 6.5, group IC50 below 100 nM, read-out: IC50, inhibition of the proton activated response
Protocol: In this example the current flux induced by protons over the membrane of a naturally occurring proton-gated cation channel in a HEK293 cell was determined using patch clamp techniques.
Using this technique, the effects of the compounds for use according to the invention was investigated on whole cell currents elicited by a drop in extracellular pH from 7.4 to 6.5.
With `CN1CCc2c(-c3ccc(Cl)cc3)cc3c(c2C1)NC(=O)C3=NO` [5-(4-chlorophenyl)-8-methyl-6-7-8-9-tetrahydro-1-H-pyrrolo-[3,2-h]-isoquinoline-2,3-dione-3-oxim] the IC50 was < 0.1 µM. In the case of `CN1Cc2c(-c3cccc4ccccc34)cc3c(c2C1)NC(=O)C3=NO` [7-methyl-5-(1-naphthyl)-1-6-7-8-tetrahydrobenzo-[2,1-b:3,4-c]-dipyrrole-2,3-dione-3-oxime], the IC50 is reported as < 0.1 µM. In the case of `CN1Cc2c(-c3ccccc3)cc3c(c2C1)NC(=O)C3=NO` [7-methyl-5-phenyl-1-6-7-8-tetrahydrobenzo-[2,1-b:3,4-c]-dipyrrole-2,3-dione-3-oxime], the IC50 is reported as < 0.1 µM. In the case of `CCN1CCc2c(-c3ccccc3)cc3c(c2C1)NC(=O)/C3=N/O` [8-ethyl-5-phenyl-6-7-8-9-tetrahydro-1H-pyrrolo-[3,2-h]-isoquinoline-2,3-dione-3-oxim], the IC50 is reported as < 0.1 µM. In the case of `CN1CCc2c(-c3ccc(F)cc3)cc3c(c2C1)NC(=O)C3=NO` [8-methyl-5-(4-fluorophenyl)-6,7,8,9-tetrahydro-1H-pyrrolo-[3,2-h]-isoquinoline-2,3-dione-3-oxim], the IC50 is reported as < 0.1 µM. For `CC(=O)ON=C1C(=O)Nc2c1cc(-c1ccccc1)c1c2CN(C)CC1` [8-methyl-5-phenyl-6,7,8,9-tetrahydro-1H-pyrrolo-[3,2-h]-isoquinoline-2,3-dione-3-acetyloxim], the IC50 was < 0.1 µM. In the case of `CN1CCc2c(-c3ccccc3)cc3c(c2C1)NC(=O)C3=NO` [8-methyl-5-phenyl-6-7-8-9-tetrahydro-1H-pyrrolo-[3,2-h]-isoquinoline-2,3-dione-3-oxim], the IC50 is reported as < 0.1 µM.

Same assay, conditions: extracellular pH drop from 7.4 to 6.5, group IC50 below 1 μM (of from 100 nM to 1 μM), read-out: IC50, inhibition of the proton activated response
In the case of `CN1CCc2c(-c3ccc4ccccc4c3)cc3c(c2C1)NC(=O)C3=NO` [5-(2-naphthyl)-8-methyl-6-7-8-9-tetrahydro-1-H-pyrrolo-[3.2-h]-isoquinoline-2,3-dione-3-oxim], the IC50 is reported as < 1 µM. In the case of `O=C1Nc2c(cc(-c3ccccc3)c3c2CNCC3)C1=NO` [5-phenyl-6-7-8-9-tetrahydro-1H-pyrrolo-[3,2-h]-isoquinoline-2,3-dione-3-oxim], the IC50 is reported as < 1 µM. For `CCN1Cc2c(-c3ccccc3)cc3c(c2C1)NC(=O)C3=NO` [7-ethyl-5-phenyl-1-6-7-8-tetrahydrobenzo-[2,1-b:3,4-c]-dipyrrole-2,3-dione-3-oxime], the IC50 was < 1 µM. In the case of `CN1Cc2c(-c3ccccc3)cc3c(c2C1)NC(=O)C3=NO` [7-methyl-5-phenyl-1-6-7-8-tetrahydrobenzo-[2,1-b:3,4-c]-dipyrrole-2,3-dione-3-oxime], the IC50 is reported as < 1 µM. In the case of `O=C1Nc2c(cc(-c3ccccc3)c3c2CN(Cc2ccccc2)CC3)C1=NO` [8-benzyl-5-phenyl-6-7-8-9-tetrahydro-1H-pyrrolo-[3,2-h]-isoquinoline-2,3-dione-3-oxim], the IC50 is reported as < 1 µM. For `O=C1Nc2c(cc(-c3ccccc3)c3c2CN(CC2CC2)CC3)C1=NO` [8-cyclopropylmethyl-5-phenyl-6,7,8,9-tetrahydro-1H-pyrrolo-[3,2-h]-isoquinoline-2,3-dione-3-oxime], the IC50 was < 1 µM. In the case of `CCN1CCc2c(-c3ccccc3)cc3c(c2C1)N(C)C(=O)C3=NO` [8-ethyl-5-phenyl-6-7-8-9-tetrahydro-1-methyl-pyrrolo-[3,2-h]-isoquinoline-2,3-dione-3-oxim], the IC50 is reported as < 1 µM. For `COc1ccccc1-c1cc2c(c3c1CCN(C)C3)NC(=O)/C2=N\O` [8-methyl-5-(2-methoxyphenyl)-6-7-8-9-tetrahydro-1-H-pyrrolo-[3.2-h]-isoquinoline-2,3-dione-3-oxim], the IC50 was < 1 µM. In the case of `COc1cccc(-c2cc3c(c4c2CCN(C)C4)NC(=O)/C3=N\O)c1` [8-methyl-5-(3-methoxyphenyl)-6-7-8-9-tetrahydro-1-H-pyrrolo-[3.2-h]-isoquinoline-2,3-dione-3-oxim], the IC50 is reported as < 1 µM. For `CN1CCc2c(-c3ccc(S(=O)(=O)N(C)C)cc3)cc3c(c2C1)NC(=O)C3=NO` [8-methyl-5-(4-(N,N-dimethylsulfamoyl)-phenyl)-6,7,8,9-tetrahydro-1H-pyrrolo-[3,2-h]-isoquinoline-2,3-dione-3-oxime], the IC50 was < 1 µM. For `CN1CCc2c(-c3ccccc3)cc3c(c2C1)NC(=O)C3=NOC(=O)C(C)(C)C` [8-methyl-5-phenyl-6-7-8-9-tetrahydro-1-H-pyrrolo-[3.2-h]-isoquinoline-2,3-dione-3-O-2,2-dimethylpropanoyl-oxim], the IC50 was < 1 µM. In the case of `CON=C1C(=O)Nc2c1cc(-c1ccccc1)c1c2CN(C)CC1` [8-methyl-5-phenyl-6-7-8-9-tetrahydro-1H-pyrrolo-[3,2-h]-isoquinoline-2,3-dione-3-methyloxim], the IC50 is reported as < 1 µM.

Same assay, conditions: extracellular pH drop from 7.4 to 6.5, group IC50 below 10 μM (of from 1 μM to 10 μM), read-out: IC50, inhibition of the proton activated response
For `O=C1Nc2c(cc(-c3ccc(Cl)cc3)c3c2CCCC3)C1=NO` [5-(4-chlorophenyl)-6-7-8-9-tetrahydro-1-H-pyrrolo-[3.2-h]-naphthalene-2,3-dione-3-oxim], the IC50 was 1 to 10 µM. In the case of `O=C1Nc2c(cc(-c3ccccc3)c3c2CCCC3)/C1=N/O` [5-phenyl-6-7-8-9-tetrahydro-1-H-pyrrolo-[3.2-h]-naphthalene-2,3-dione-3-oxim], the IC50 is reported as 1 to 10 µM. `C#CCN1CCc2c(-c3ccccc3)cc3c(c2C1)NC(=O)C3=NO` [8-(2-propynyl)-5-phenyl-6,7,8,9-tetrahydro-1H-pyrrolo-[3,2-h]-isoquinoline-2,3-dione-3-oxime] showed an IC50 of 1 to 10 µM. `CCN1CCc2c(-c3ccccc3)cc3c(c2C1)N(C)C(=O)C3=NOC` [8-ethyl-5-phenyl-6-7-8-9-tetrahydro-1-methyl-pyrrolo-[3,2-h]-isoquinoline-2,3-dione-3-O-methyloxim] gave an IC50 of 1 to 10 µM. Work on `COC(=O)CN1CCc2c(-c3ccccc3)cc3c(c2C1)NC(=O)C3=NO` [8-methoxycarbonylmethyl-5-phenyl-6,7,8,9-tetrahydro-1H-pyrrolo-[3,2-h]-isoquinoline-2,3-dione-3-oxime] yielded an IC50 of 1 to 10 µM. `COc1ccc(-c2cc3c(c4c2CCN(C)C4)NC(=O)C3=NO)cc1` [8-methyl-5-(4-methoxyphenyl)-6-7-8-9-tetrahydro-1-H-pyrrolo-[3.2-h]-isoquinoline-2,3-dione-3-oxim] gave an IC50 of 1 to 10 µM. In the case of `CN1CCc2c(-c3ccc([N+](=O)[O-])cc3)cc3c(c2C1)NC(=O)/C3=N\O` [8-methyl-5-(4-nitrophenyl)-6,7,8,9-tetrahydro-1H-pyrrolo-[3,2-h]-isoquinoline-2,3-dione-3-oxim], the IC50 is reported as 1 to 10 µM.

Test system: not given
Assay: not given
Conditions: not given
For `C#CCN1CCc2c(-c3ccccc3)cc3c(c2C1)NC(=O)C3=NO` [8-(2-propynyl)-5-phenyl-6,7,8,9-tetrahydro-1H-pyrrolo-[3,2-h]-isoquinoline-2,3-dione-3-oxime], the melting point was 170 °C (dec.). With `O=C1Nc2c(cc(-c3ccccc3)c3c2CN(Cc2ccccc2)CC3)C1=NO` [8-benzyl-5-phenyl-6-7-8-9-tetrahydro-1H-pyrrolo-[3,2-h]-isoquinoline-2,3-dione-3-oxim] the melting point was 160 °C (dec.). In the case of `O=C1Nc2c(cc(-c3ccccc3)c3c2CN(CC2CC2)CC3)C1=NO` [8-cyclopropylmethyl-5-phenyl-6,7,8,9-tetrahydro-1H-pyrrolo-[3,2-h]-isoquinoline-2,3-dione-3-oxime], the melting point is reported as 170 °C (dec.).

— patent US7288653B2, “Inhibitors of proton-gated cation channels and their use in the treatment of ischaemic disorders” (PainCeptor Pharma Corporation, priority 1999, dated 2007)
